Experimental data taken from US8758816B2, “Compositions comprising azelastine and methods of use thereof” (priority 2004, dated 2014).
Counter-ions that a name gives are not always drawn.

System: patients with seasonal allergic rhinitis (SAR)
Test: MP 428 two-week randomized double-blind study: Total Nasal Symptom Score (TNSS), change from baseline
Assay type: in vivo, human
Set-up: key to Change from Baseline in AM TNSS, Mean / Change from Baseline in AM TNSS, LS Mean / Change from Baseline in AM TNSS, Median: TNSS sum of 4 symptoms each 0-3 (0=none, 3=severe); change from baseline
Procedure: A two-week, randomized, double-blind study, which evaluated the effects of the co-administration of ASTELIN® (azelastine hydrochloride (HCl)) and FLONASE® (fluticasone propionate) compared to either product alone in patients with seasonal allergic rhinitis (SAR) was conducted during the 2006 Texas mountain cedar season. After a 5-day placebo lead-in period, 151 patients with moderate-to-severe allergic rhinitis symptoms were randomized to either: (1) (49 total patients) ASTELIN® (azelastine hydrochloride (HCl)) plus placebo saline nasal spray 2 sprays per nostril, 15 minutes apart, twice daily (AM & PM); (2) (50 total patients) FLONASE® (fluticasone propionate) plus placebo saline nasal spray, 2 sprays per nostril, 15 minutes apart, once daily (AM) and two sessions of placebo saline nasal spray, 2 sprays per nostril, 15 minutes apart (PM); or (3) (52 total patients) the co-administration of ASTELIN® (azelastine hydrochloride (HCl)) 2 sprays per nostril plus FLONASE® (fluticasone propionate) 2 sprays per nostril (AM), 15 minutes apart, and ASTELIN® (azelastine hydrochloride (HCl)) 2 sprays per nostril plus placebo saline nasal spray, 15 minutes apart, (PM) for a 2-week double-blind treatment period.
The primary efficacy variable was the change from baseline in the Total Nasal Symptom Score (TNSS), which comprised sneezing, itchy nose, runny nose, and nasal congestion (individual symptoms scores were assigned a value between 0 and 3, where 0=no symptoms and 3=severe symptoms). This study was not statistically designed to assess the differences between ASTELIN® and FLONASE®.

[1] = Day 9, Intent-to-Treat Population
[2] = Day 10, Intent-to-Treat Population
[3] = Day 10, Per-Protocol Population
[4] = Day 11, Intent-to-Treat Population
[5] = Day 11, Per-Protocol Population
[6] = Day 12, Intent-to-Treat Population

Compound: CN1CCCC(n2nc(Cc3ccc(Cl)cc3)c3ccccc3c2=O)CC1 (racemic) [Azelastine, (±)-1-(2H)-phthalazinone, 4-[(4-chlorophenyl)methyl]-2-(hexahydro-1-methyl-1H-azepin-4-yl)-, mono-hydrochloride]
- Change from Baseline in AM TNSS, Median [1]: −2.00
- Change from Baseline in AM and PM Combined TNSS, Mean [1]: −5.38
- Change from Baseline in AM and PM Combined TNSS, Median [1]: −3.83
- Change from Baseline in PM TNSS, LS Mean [1]: −2.78
- Change from Baseline in PM TNSS, Mean [1]: −2.86
- Change from Baseline in PM TNSS, Median [1]: −2.33
- Percent Change from Baseline in AM TNSS, LS Mean [1]: −26.38%
- Percent Change from Baseline in AM TNSS, Mean [1]: −26.20%
- Percent Change from Baseline in AM TNSS, Median [1]: −22.22%
- Percent Change from Baseline in AM and PM Combined TNSS, LS Mean [1]: −27.79%
- Percent Change from Baseline in AM and PM Combined TNSS, Mean [1]: −27.72%
- Percent Change from Baseline in AM and PM Combined TNSS, Median [1]: −19.35%
- Percent Change from Baseline in PM TNSS, LS Mean [1]: −28.94%
- Percent Change from Baseline in PM TNSS, Mean [1]: −28.91%
- Percent Change from Baseline in PM TNSS, Median [1]: −25.00%
- Change from Baseline in AM and PM Combined TNSS, LS Mean (Day 9, Intent-to-Treat Population, ANCOVA model): −5.36
- Change from Baseline in AM and PM Combined TNSS, LS Mean (Day 9, Per-Protocol Population): −5.32
- Change from Baseline in AM and PM Combined TNSS, Mean (Day 9, Per-Protocol Population): −5.38
- Change from Baseline in AM and PM Combined TNSS, Median (Day 9, Per-Protocol Population): −3.83
- Percent Change from Baseline in AM and PM Combined TNSS, LS Mean (Day 9, Per-Protocol Population): −27.68%
- Percent Change from Baseline in AM and PM Combined TNSS, Mean (Day 9, Per-Protocol Population): −27.72%
- Percent Change from Baseline in AM and PM Combined TNSS, Median (Day 9, Per-Protocol Population): −19.35%
- Change from Baseline in AM TNSS, LS Mean [2]: −2.29
- Change from Baseline in AM TNSS, Mean [2]: −2.27
- Change from Baseline in AM TNSS, Median [2]: −2.17
- Change from Baseline in AM and PM Combined TNSS, Mean [2]: −5.36
- Change from Baseline in AM and PM Combined TNSS, Median [2]: −5.33
- Change from Baseline in PM TNSS, LS Mean [2]: −3.01
- Change from Baseline in PM TNSS, Mean [2]: −3.08
- Change from Baseline in PM TNSS, Median [2]: −3.00
- Percent Change from Baseline in AM TNSS, LS Mean [2]: −23.62%
- Percent Change from Baseline in AM TNSS, Mean [2]: −23.81%
- Percent Change from Baseline in AM TNSS, Median [2]: −23.64%
- Percent Change from Baseline in AM and PM Combined TNSS, LS Mean [2]: −27.60%
- Percent Change from Baseline in AM and PM Combined TNSS, Mean [2]: −27.81%
- Percent Change from Baseline in AM and PM Combined TNSS, Median [2]: −28.93%
- Percent Change from Baseline in PM TNSS, LS Mean [2]: −31.30%
- Percent Change from Baseline in PM TNSS, Mean [2]: −31.29%
- Percent Change from Baseline in PM TNSS, Median [2]: −33.33%
- Change from Baseline in AM and PM Combined TNSS, LS Mean (Day 10, Intent-to-Treat Population, ANCOVA model): −5.29
- Change from Baseline in AM and PM Combined TNSS, LS Mean [3]: −5.25
- Change from Baseline in AM and PM Combined TNSS, Mean [3]: −5.36
- Change from Baseline in AM and PM Combined TNSS, Median [3]: −5.33
- Percent Change from Baseline in AM and PM Combined TNSS, LS Mean [3]: −27.49%
- Percent Change from Baseline in AM and PM Combined TNSS, Mean [3]: −27.81%
- Percent Change from Baseline in AM and PM Combined TNSS, Median [3]: −28.93%
- Change from Baseline in AM TNSS, LS Mean [4]: −2.53
- Change from Baseline in AM TNSS, Mean [4]: −2.48
- Change from Baseline in AM TNSS, Median [4]: −2.00
- Change from Baseline in AM and PM Combined TNSS, Mean [4]: −5.77
- Change from Baseline in AM and PM Combined TNSS, Median [4]: −4.70
- Change from Baseline in PM TNSS, LS Mean [4]: −3.20
- Change from Baseline in PM TNSS, Mean [4]: −3.29
- Change from Baseline in PM TNSS, Median [4]: −3.33
- Percent Change from Baseline in AM TNSS, LS Mean [4]: −25.86%
- Percent Change from Baseline in AM TNSS, Mean [4]: −25.65%
- Percent Change from Baseline in AM TNSS, Median [4]: −19.40%
- Percent Change from Baseline in AM and PM Combined TNSS, LS Mean [4]: −29.24%
- Percent Change from Baseline in AM and PM Combined TNSS, Mean [4]: −29.42%
- Percent Change from Baseline in AM and PM Combined TNSS, Median [4]: −26.11%
- Percent Change from Baseline in PM TNSS, LS Mean [4]: −32.80%
- Percent Change from Baseline in PM TNSS, Mean [4]: −32.77%
- Percent Change from Baseline in PM TNSS, Median [4]: −33.96%
- Change from Baseline in AM and PM Combined TNSS, LS Mean (Day 11, Intent-to-Treat Population, ANCOVA model): −5.70
- Change from Baseline in AM and PM Combined TNSS, LS Mean [5]: −5.64
- Change from Baseline in AM and PM Combined TNSS, Mean [5]: −5.77
- Change from Baseline in AM and PM Combined TNSS, Median [5]: −4.70
- Percent Change from Baseline in AM and PM Combined TNSS, LS Mean [5]: −29.05%
- Percent Change from Baseline in AM and PM Combined TNSS, Mean [5]: −29.42%
- Percent Change from Baseline in AM and PM Combined TNSS, Median [5]: −26.11%
- Change from Baseline in AM TNSS, LS Mean [6]: −2.60
- Change from Baseline in AM TNSS, Mean [6]: −2.58
- Change from Baseline in AM TNSS, Median [6]: −2.50
- Change from Baseline in AM and PM Combined TNSS, Mean [6]: −5.54
- Change from Baseline in AM and PM Combined TNSS, Median [6]: −5.00
- Change from Baseline in PM TNSS, LS Mean [6]: −2.85
- Change from Baseline in PM TNSS, Mean [6]: −2.96
- Change from Baseline in PM TNSS, Median [6]: −2.40
- Percent Change from Baseline in AM TNSS, LS Mean [6]: −26.61%
- Percent Change from Baseline in AM TNSS, Mean [6]: −26.72%
- Percent Change from Baseline in AM TNSS, Median [6]: −26.32%
- Percent Change from Baseline in AM and PM Combined TNSS, LS Mean [6]: −27.99%
- Percent Change from Baseline in AM and PM Combined TNSS, Mean [6]: −28.25%
- Percent Change from Baseline in AM and PM Combined TNSS, Median [6]: −25.86%
- Percent Change from Baseline in PM TNSS, LS Mean [6]: −29.18%
- Percent Change from Baseline in PM TNSS, Mean [6]: −29.44%
